In patent US8637511B2, “Aminopyrimidines useful as kinase inhibitors” (Vertex Pharmaceuticals Incorporated, priority 2005, dated 2014):
pIC50, pKi: −log10 of the molar value. Several values for one entry are separate records, joined by “and”; a condition that tells them apart may be missing. Equal entries are not always repeated. Where two headings read alike, the source gives them in different places.

Experiments:
Colo205 cells = test: Analysis of cell proliferation and viability; assay type: cell-based; conditions: Homo sapiens, read-out: IC50 value
Aurora-1 (Aurora B) = Aurora-1 (Aurora B) (Homo sapiens, UniProt Q96GD4); test: Aurora-1 (Aurora B) inhibition assay (radiometric); assay type: biochemical
Procedure, shortened: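 Radiometric ^33P incorporation into peptide substrate, with [γ-^33P]-ATP at 800 μM final, in 25 mM HEPES pH 7.5, 10 mM MgCl2, 0.1% BSA, 10% glycerol. Compound preincubated with enzyme for 10 min at 25° C, reaction run 3 h, then captured on phosphocellulose. Ki from initial rates by non-linear regression after background subtraction.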

JAK3 = biological target: T1, JAK3 (Homo sapiens, UniProt P52333); test: biochemical
T1 sequence (P52333 1-1124): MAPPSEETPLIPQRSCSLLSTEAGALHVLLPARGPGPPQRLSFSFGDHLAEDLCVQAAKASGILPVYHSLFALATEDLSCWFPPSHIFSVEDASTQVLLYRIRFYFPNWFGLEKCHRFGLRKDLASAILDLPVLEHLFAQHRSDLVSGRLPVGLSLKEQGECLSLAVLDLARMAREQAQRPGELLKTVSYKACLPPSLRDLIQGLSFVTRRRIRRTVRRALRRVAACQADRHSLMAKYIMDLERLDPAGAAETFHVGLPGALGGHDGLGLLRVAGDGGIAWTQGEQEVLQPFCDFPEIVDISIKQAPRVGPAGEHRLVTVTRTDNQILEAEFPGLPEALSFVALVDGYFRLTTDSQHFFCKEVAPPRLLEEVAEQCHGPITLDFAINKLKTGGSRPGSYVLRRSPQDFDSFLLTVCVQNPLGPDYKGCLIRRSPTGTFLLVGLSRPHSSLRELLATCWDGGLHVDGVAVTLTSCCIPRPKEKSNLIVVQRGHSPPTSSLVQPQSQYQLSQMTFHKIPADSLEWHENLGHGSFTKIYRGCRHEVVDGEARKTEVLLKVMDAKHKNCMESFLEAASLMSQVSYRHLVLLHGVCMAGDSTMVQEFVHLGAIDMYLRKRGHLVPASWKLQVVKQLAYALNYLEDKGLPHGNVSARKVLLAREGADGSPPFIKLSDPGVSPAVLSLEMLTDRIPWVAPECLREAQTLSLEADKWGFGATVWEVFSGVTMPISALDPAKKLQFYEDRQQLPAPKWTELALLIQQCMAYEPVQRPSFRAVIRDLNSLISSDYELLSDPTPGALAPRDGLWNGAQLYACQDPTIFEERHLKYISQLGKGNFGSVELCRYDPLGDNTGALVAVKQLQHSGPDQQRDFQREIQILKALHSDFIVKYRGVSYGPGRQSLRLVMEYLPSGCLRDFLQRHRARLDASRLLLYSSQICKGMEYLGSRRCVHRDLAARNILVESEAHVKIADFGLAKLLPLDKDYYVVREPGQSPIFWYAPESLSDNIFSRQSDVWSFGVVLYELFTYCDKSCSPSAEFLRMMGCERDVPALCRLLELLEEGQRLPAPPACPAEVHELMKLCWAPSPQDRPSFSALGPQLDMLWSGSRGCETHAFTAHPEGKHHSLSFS
Procedure: Reactions were carried out in a kinase buffer containing 100 mM HEPES (pH 7.4), 1 mM DTT, 10 mM MgCl2, 25 mM NaCl, and 0.01% BSA. Substrate concentrations in the assay were 5 μM ATP (200 uCi/μmole ATP) and 1 μM poly(Glu)4Tyr. Reactions were carried out at 25° C. and 1 nM JAK3.
To each well of a 96 well polycarbonate plate was added 1.5 μl of a candidate JAK3 inhibitor along with 50 μl of kinase buffer containing 2 μM poly(Glu)4Tyr and 10 μM ATP. This was then mixed and 50 μl of kinase buffer containing 2 nM JAK3 enzyme was added to start the reaction. After 20 minutes at room temperature (25 C), the reaction was stopped with 50 μl of 20% trichloroacetic acid (TCA) that also contained 0.4 mM ATP. The entire contents of each well were then transferred to a 96 well glass fiber filter plate using a TomTek Cell Harvester. After washing, 60 μl of scintillation fluid was added and ^33P incorporation detected on a Perkin Elmer TopCount.

Aurora-2 (Aurora A) = biological target: T2, Aurora-2 (Aurora A) (Homo sapiens, UniProt O14965); test: Aurora-2 (Aurora A) inhibition assay, coupled enzyme; assay type: biochemical
T2 sequence (O14965 1-403): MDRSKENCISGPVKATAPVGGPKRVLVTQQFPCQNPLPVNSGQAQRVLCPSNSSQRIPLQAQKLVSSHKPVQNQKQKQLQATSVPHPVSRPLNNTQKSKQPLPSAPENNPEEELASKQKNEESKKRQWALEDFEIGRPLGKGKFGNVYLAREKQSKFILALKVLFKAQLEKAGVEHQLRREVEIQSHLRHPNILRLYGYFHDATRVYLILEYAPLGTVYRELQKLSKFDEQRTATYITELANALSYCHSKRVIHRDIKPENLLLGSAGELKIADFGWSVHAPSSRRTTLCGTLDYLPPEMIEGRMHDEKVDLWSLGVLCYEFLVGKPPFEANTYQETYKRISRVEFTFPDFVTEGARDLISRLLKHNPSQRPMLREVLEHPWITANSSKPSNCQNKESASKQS
Procedure, shortened: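 Coupled pyruvate kinase/lactate dehydrogenase assay with NADH in pH 7.5 Hepes containing MgCl2, DTT and NaCl, using 40 nM Aurora-2 at 30 °C. After a 10 min preincubation, enzyme addition started the reaction, and initial rates were taken over 10 min. IC50 and Ki came from non-linear regression.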

[1] = COLO 205, Colo205 cells, incubated for 96 hours
[2] = read-out: Aurora B kinase Ki value
[3] = read-out: Aurora A kinase Ki value
[4] = COLO 205, Colo205 cells, incubated for 72 hours

Aurora-1 (Aurora B), sequence (Q96GD4 whole entry): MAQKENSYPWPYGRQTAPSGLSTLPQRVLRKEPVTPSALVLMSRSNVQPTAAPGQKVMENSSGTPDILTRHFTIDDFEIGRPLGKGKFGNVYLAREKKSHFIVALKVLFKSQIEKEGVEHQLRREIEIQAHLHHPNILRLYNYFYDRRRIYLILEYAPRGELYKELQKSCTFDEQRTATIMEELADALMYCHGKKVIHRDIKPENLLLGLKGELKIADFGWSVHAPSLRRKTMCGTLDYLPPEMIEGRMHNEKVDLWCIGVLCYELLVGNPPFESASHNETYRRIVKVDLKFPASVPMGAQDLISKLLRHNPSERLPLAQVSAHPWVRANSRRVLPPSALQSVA

Compound `Cc1cnc(Nc2cc(N3CC(N(C)C)C3)nc(Sc3ccc(NC(=O)C4CC4)cc3)n2)s1` [Compound 1] has a pIC50 (Colo205 cells; [1]) of 6.00 to 7.30, a pKi (Aurora-1 (Aurora B); [2]) of 7.30 to 8.00 and a pKi (JAK3) of 6.30 to 8.00. For the same compound, the pKi (Aurora-2 (Aurora A); [3]) was 6.70 to 8.30.

Work on `Cc1cnc(Nc2cc(N3CC(N)C3)nc(Sc3ccc(NC(=O)C4CC4)cc3)n2)s1` [Compound 2] yielded a pIC50 (Colo205 cells; [1]) of 6.00 to 7.30, a pKi (Aurora-1 (Aurora B); [2]) of 5.70 to 7.30 and a pKi (JAK3) of 5.70 to 6.30. It also gave a pKi (Aurora-2 (Aurora A); [3]) of 6.70 to 8.30.

`Cc1cnc(Nc2cc(N3CC(O)C3)nc(Sc3ccc(NC(=O)C4CC4)cc3)n2)s1` [Compound 3] showed a pIC50 (Colo205 cells; [1]) of less than 6.00, a pKi (Aurora-1 (Aurora B); [2]) of no less than 8.00 and a pKi (JAK3; read-out: JAK3 Ki value) of 6.30 to 8.00. For the same compound, the pKi (Aurora-2 (Aurora A); [3]) was 8.30 to 9.00.

In the case of `Cc1cnc(Nc2cc(N3CCC3)nc(Sc3ccc(NC(=O)C4CC4)cc3)n2)s1` [Compound 4], the pIC50 (Colo205 cells; [1]) was 6.00 to 7.30, the pKi (Aurora-1 (Aurora B); [2]) was 5.70 to 7.30 and the pKi (JAK3) was 5.70 to 6.30. It also gave a pKi (Aurora-2 (Aurora A); [3]) of 8.30 to 9.00.

Work on `CC1=NN=C(Nc2cc(N3CCC3)nc(Sc3ccc(NC(=O)c4ccccc4Cl)cc3)n2)C1` [Compound 5] yielded a pIC50 (Colo205 cells; [4]) of 6.70 to 7.52, a pIC50 (Colo205 cells; [1]) of 6.00 to 7.30 and a pKi (Aurora-1 (Aurora B); [2]) of no less than 8.00. The pKi (JAK3; read-out: JAK3 Ki value) was 6.30 to 8.00 and the pKi (Aurora-2 (Aurora A); [3]) was no less than 9.00.

For `CC1=NN=C(Nc2cc(N3CCC3)nc(Sc3ccc(NC(=O)C4CCCN4C)cc3)n2)C1` (stereo not shown) [Compound 6], the pIC50 (Colo205 cells; [1]) was 6.00 to 7.30, the pKi (Aurora-1 (Aurora B); Aurora B kinase Ki value) was 7.30 to 8.00 and > 7.60 and the pKi (Aurora-2 (Aurora A); [3]) was 6.70 to 8.30.

`Cc1cc(Nc2cc(N3CCC3)nc(Sc3ccc(NC(=O)c4c(F)cccc4N4CCC4)cc3)n2)n[nH]1` [Compound 8] gave a pIC50 (Colo205 cells; [1]) of 6.00 to 7.30, a pKi (Aurora-1 (Aurora B); [2]) of no less than 8.00 and a pKi (JAK3) of 6.30 to 8.00. It also gave a pKi (Aurora-2 (Aurora A); [3]) of 8.30 to 9.00.

Compound `Cc1cc(Nc2cc(N3CCC3)nc(Sc3ccc(N(C)C(=O)c4ccccc4F)cc3)n2)n[nH]1` [Compound 10] has a pKi (Aurora-1 (Aurora B); [2]) of 5.70 to 7.30, a pKi (JAK3) of 6.30 to 8.00 and a pKi (Aurora-2 (Aurora A); [3]) of 6.70 to 8.30.

Compound `COC1CN(c2cc(Nc3cc(C)[nH]n3)nc(Sc3ccc(NC(=O)c4ccccc4Cl)cc3)n2)C1` [Compound 12] has a pIC50 (Colo205 cells; [1]) of no less than 7.30, a pKi (Aurora-1 (Aurora B); [2]) of no less than 8.00 and a pKi (JAK3) of no less than 8.00. The pKi (Aurora-2 (Aurora A)) was no less than 9.00.

With `CCC(=O)Nc1ccc(Sc2nc(Nc3cc(C)[nH]n3)cc(N3CCC3)n2)cc1` [Compound 14] the pIC50 (Colo205 cells; COLO 205, 96 h) was 6.00 to 7.30, the pKi (Aurora-1 (Aurora B); [2]) was 7.30 to 8.00 and > 7.60 and the pKi (JAK3; read-out: JAK3 Ki value) was 6.30 to 8.00. For the same compound, the pKi (Aurora-2 (Aurora A); [3]) was 8.30 to 9.00.

For `CCC(=O)Nc1ccc(Sc2nc(Nc3cc(C)[nH]n3)cc(N3CC(O)C3)n2)cc1` [Compound 15], the pIC50 (Colo205 cells; [1]) was 6.00 to 7.30, the pKi (Aurora-1 (Aurora B); [2]) was 7.30 to 8.00 and > 7.60 and the pKi (JAK3) was 6.30 to 8.00. The pKi (Aurora-2 (Aurora A)) was 8.30 to 9.00.

In the case of `Cc1cc(Nc2cc(N3CC(C#N)C3)nc(Sc3ccc(NC(=O)c4ccccc4Cl)cc3)n2)n[nH]1` [Compound 16], the pIC50 (Colo205 cells; [4]) was 6.70 to 7.52, the pIC50 (Colo205 cells; [1]) was 6.00 to 7.30 and the pKi (Aurora-1 (Aurora B); [2]) was no less than 8.00. It also gave a pKi (JAK3) of 6.30 to 8.00 and a pKi (Aurora-2 (Aurora A); [3]) of no less than 9.00.

With `Cc1cc(Nc2cc(N3CCC3)nc(Sc3ccc(NC(=O)C4CC4)cc3)n2)n[nH]1` [Compound 17] the pIC50 (Colo205 cells; [1]) was 6.00 to 7.30, the pKi (Aurora-1 (Aurora B); [2]) was 7.30 to 8.00 and the pKi (JAK3) was 6.30 to 8.00. The pKi (Aurora-2 (Aurora A); [3]) was 8.30 to 9.00.

`Cc1cc(Nc2cc(N3CCC3)nc(Sc3ccc(C(=O)NCc4ccccc4)cc3)n2)n[nH]1` [Compound 19] gave a pIC50 (Colo205 cells; [1]) of less than 6.00, a pKi (Aurora-1 (Aurora B); [2]) of no less than 8.00 and a pKi (JAK3) of 6.30 to 8.00. For the same compound, the pKi (Aurora-2 (Aurora A)) was 6.70 to 8.30.

With `CCNC(=O)c1ccc(Sc2nc(Nc3cc(C)[nH]n3)cc(N3CCC3)n2)cc1` [Compound 20] the pIC50 (Colo205 cells; [1]) was 6.00 to 7.30, the pKi (Aurora-1 (Aurora B); [2]) was 7.30 to 8.00 and the pKi (JAK3) was 6.30 to 8.00. For the same compound, the pKi (Aurora-2 (Aurora A)) was 6.70 to 8.30.

Work on `Cc1cc(Nc2cc(N3CCC3)nc(Sc3ccc(C(=O)N4CCCC4)cc3)n2)n[nH]1` [Compound 22] yielded a pIC50 (Colo205 cells; [1]) of less than 6.00, a pKi (Aurora-1 (Aurora B); [2]) of 5.70 to 7.30 and a pKi (JAK3) of 6.30 to 8.00. It also gave a pKi (Aurora-2 (Aurora A)) of 6.70 to 8.30.

In the case of `Cc1cc(Nc2cc(N3CCC3)nc(Sc3ccc(C(=O)NC4CCCC4)cc3)n2)n[nH]1` [Compound 23], the pIC50 (Colo205 cells; [1]) was less than 6.00, the pKi (Aurora-1 (Aurora B); [2]) was 5.70 to 7.30 and the pKi (JAK3) was 5.70 to 6.30. For the same compound, the pKi (Aurora-2 (Aurora A); [3]) was 6.70 to 8.30.

`Cc1cc(Nc2cc(N3CCC3)nc(Sc3ccc(C(=O)NCc4ccccc4Cl)cc3)n2)n[nH]1` [Compound 24] was tested, and the pIC50 (Colo205 cells; [1]) was less than 6.00, the pKi (Aurora-1 (Aurora B); [2]) was 5.70 to 7.30 and the pKi (JAK3) was 5.70 to 6.30. The pKi (Aurora-2 (Aurora A)) was 6.70 to 8.30.

`Cc1cc(Nc2cc(N3CCC3)nc(Sc3ccc4ccccc4c3)n2)n[nH]1` [Compound 25] gave a pIC50 (Colo205 cells; [1]) of less than 6.00, a pKi (Aurora-1 (Aurora B); [2]) of 5.70 to 7.30 and a pKi (JAK3) of no less than 8.00. For the same compound, the pKi (Aurora-2 (Aurora A); [3]) was 8.30 to 9.00.

`Cc1cc(Nc2cc(N3CC(F)(C4CC4)C3)nc(Sc3ccc(N)cc3)n2)[nH]n1` [Compound 209] gave a pKi (Aurora-1 (Aurora B); [2]) of 5.70 to 7.30, a pKi (JAK3) of no less than 8.00 and a pKi (Aurora-2 (Aurora A); [3]) of 6.70 to 8.30.
